{
  "source": "paper PMC7219108",
  "about": "“Pisum sativum Defensin 1 Eradicates Mouse Metastatic Lung Nodules from B16F10 Melanoma Cells” (International Journal of Molecular Sciences, 2020)",
  "key": {"C57BL/6 mice": {"tested_on": "C57BL/6 mice", "assay": "Toxicity observation in mice given Psd1 alone", "type": "in vivo", "method": "Another group of animals received 1 mg/kg of Psd1 only (n = 9) to evaluate Psd1 toxicity. Twenty-one days later, the animals were anaesthetized and sacrificed, and the black lung melanoma nodules were counted and measured under a dissecting microscope (Zeiss AxioPhot fluorescence microscope (Carl-Zeiss, Oberkochen, Germany))."}, "[1]": {"tested_on": "A-431 (human epidermoid carcinoma) cells", "assay": "MTT cell viability, A-431 tumor cells", "type": "cell-based", "details": "24 h, p < 0.001"}, "[2]": {"tested_on": "R8 (rat lymphocyte) cells", "assay": "LDH release cell viability, healthy R8 cells", "type": "cell-based", "details": "30 µM, 3 h (6 µM not tested)"}, "[3]": {"tested_on": "HSP-2 (human hepatocyte) cells", "assay": "Cell viability, healthy HSP-2 cells", "type": "cell-based", "details": "6 and 30 µM, 3 h"}, "[4]": {"details": "cited from earlier work", "excerpt": "(§1) The mechanism of action proposed for Psd1 antifungal activity includes its interaction with specific cell wall/membrane lipid targets, such as C8-desaturated and C9-methylated glucosylceramide (GlcCer), a fungal exclusive GSL, and ergosterol."}, "several fungal species": {"tested_on": "several fungal species", "details": "cited from earlier work", "excerpt": "as §1"}, "[5]": {"tested_on": "Fusarium solani planktonic cells", "design": "method as in PMID 17240982", "details": "cited from earlier work"}, "[6]": {"tested_on": "Beas-2B (bronchial human respiratory epithelial) cells", "assay": "MTT cell viability, healthy Beas-2B cells", "type": "cell-based", "details": "3.125-50 µM, 24, 48 and 72 h"}, "B16F10 cells": {"tested_on": "B16F10 cells", "assay": "Flow cytometry-based apoptosis detection (sub-G0/G1 DNA content)", "type": "cell-based, murine", "details": "50 µM, 24 h, propidium iodide; control Sub-G1 4.4%", "method": "Figure 2 Psd1 promotes B16F10 live cell membrane permeabilization as monitored by SYTOX Green fluorescence. (A) Psd1 untreated and hydrogen peroxide-treated B16F10 cells. (B) A total of 1.5 × 10^4 B16F10 cells were incubated with 3 or 50 µM Psd1 for 30 min. (C) 1.5 × 10^4 B16F10 cells were incubated with 50 µM Psd1 for 1 h. All experiments were performed at 37 °C. Nucleus staining is shown in green (SYTOXGreen), and mitochondria are shown in red (MitoTracker Red CMXRos). Images are shown at 20× magnification. […] (E) Psd1 induces apoptosis in B16F10 cells. B16F10 cells were treated with 50 µM Psd1 for 24 h and labeled with propidium iodide, and the DNA content was analyzed by flow cytometry for the sub-G0/G1 profile. At least two independent experiments were performed. TEXT PRINTED IN THE PICTURE: (E) Control: Sub-G1: 4.4% | (E) Psd1: Sub-G1: 60.6% (50μM)\nB16F10 cells (4 × 10^5 cells) were treated with 50 μM Psd1 for 24 h. After treatment, the cells were trypsinized, centrifuged, and washed twice with phosphate-buffered saline (PBS). The cells were then stained with Nicoletti buffer (0.1% sodium citrate, 0.1% NP-40, 200 μg/mL RNase, and 50 μg/mL propidium iodide). Doublets and debris were identified and excluded. Analysis of the DNA content was performed by collecting 20,000 events using a BD FACSCalibur flow cytometer (BD Biosciences, San Jose, CA, USA). […]"}, "[7]": {"assay": "Body weight of mice in the B16F10 metastasis experiment", "type": "in vivo, mouse", "details": "0.1, 1 and 3 mg/kg Psd1 i.v. with B16F10 cells, 21 days; animals with B16F10 only lost weight", "excerpt": "Figure 6 Protective effects of Psd1 on a model of experimental lung metastasis in vivo. B16F10 mouse melanoma tumors were established by intravenous injection of 2.5 × 10^5 B16F10 cells into C57BL/6 mice. (A) After 21 days, mice from each experimental group were sacrificed, and the number of visible lung metastatic nodules was quantified. Treatment of the animals inoculated with melanoma cells plus Psd1 caused a dose-dependent reduction in the number of lung metastases. Black lines represent the mean ± SEM of two independent experiments analyzed by one-way ANOVA and Bonferroni’s multiple comparison test. **** p < 0.0001 B16F10 vs. phosphate buffer solution (PBS); **** p < 0.0001 B16F10 vs. Psd1 1 mg/kg; **** p < 0.0001 B16F10 vs. just Psd1 1 mg/kg (without B16F10 cells); *** p < 0.001 B16F10 vs. Psd1 3 mg/kg; * p < 0.05 B16F10 vs. Psd1 0.5 mg/kg. (B) Representative images of lung metastatic nodules from animals that received just PBS or B16F10 cells alone or together with 0.1 mg/kg or 1 mg/kg Psd1. Bar = 2 mm. (C) Animal weights were acquired every two days. Weight variation was calculated as (weight on that day (weight of the first day × 100 − 100)). Only the days with higher weight differences between animals injected with only B16F10 cells and those that received cells plus Psd1 or PBS alone are represented. […]"}},
  "data": [
    {"substance": "Psd1: 46-amino acid residue plant defensin isolated from pea seeds, expressed in Pichia pastoris (PDB 1JKZ) (KTCEHLADTYRGVCFTNASCDDHCKNKAHLISGTCHNWKCFCTQNC)", "values": [
      {"measurement": "Inflammation in lung tissue, weight or vital signal losses", "setting": "C57BL/6 mice; 1 mg/kg Psd1 alone, over 21 days", "result": "did not provoke inflammation in lung tissue or weight or vital signal losses over 21 days"},
      {"measurement": "Behavior signals / mortality", "setting": "C57BL/6 mice; Psd1 alone (1 mg/kg i.v.), vs PBS", "result": "did not present changes in important behavior signals, such as changes in locomotion, piloerection, diarrhea, or mortality"},
      {"measurement": "A-431 growth, result in words (MTT)", "setting": "[1]; 12.5 µM", "result": "decreased growth"},
      {"measurement": "Maximum reduction of A-431 growth (MTT)", "setting": "[1]; 50 µM", "result": 20, "unit": "%"},
      {"measurement": "R8 cell viability (LDH release)", "setting": "[2]", "result": "no alteration in cell viability"},
      {"measurement": "HSP-2 cell viability", "setting": "[3]", "result": "no alteration in cell viability"},
      {"measurement": "Affinity to cholesterol-enriched lipid bilayers", "setting": "[4]", "result": "does not show good affinity"},
      {"measurement": "Antimicrobial activity against fungi", "setting": "several fungal species", "result": "well-documented antimicrobial activity against several fungal species"},
      {"measurement": "Internalization and cell cycle effect", "setting": "[5]", "result": "internalized in Fusarium solani planktonic cells, directing their cell cycle impairment and causing fungal endoreduplication"},
      {"measurement": "Beas-2B cell viability (MTT)", "setting": "[6]", "result": "no alteration in cell viability was observed even after 72 h of exposure"},
      {"measurement": "Sub-G0/G1 (sub-G1) cells", "setting": "B16F10 cells", "result": 60.6, "unit": "%"},
      {"measurement": "Body weight", "setting": "[7]", "result": "gained weight throughout the assay"}
    ]}
  ]
}
